Laboratory results reported in patent publication US7612200B2, “Inhibitors of protein kinases” (Locus Pharmaceuticals, Inc., priority 2004, dated 2009).

How the values were obtained:
Type in all cases: biochemical
[1] = target: P70S6K (Homo sapiens, UniProt P23443); experiment: Protein kinase inhibition, P70S6K; conditions: Rate (μM) 2, read-out: % Control
[2] = target: c-RAF (Homo sapiens, UniProt P04049); experiment: c-RAF Kinase Activity
Description: (§1) c-RAF Kinase Activity: In a final reaction volume of 25 μl, c-RAF (h) (5-10 mU) is incubated with 25 mM Tris pH 7.5, 0.02 mM EGTA, 0.66 mg/ml myelin basic protein, 10 mM MgAcetate, and [γ-^33P-ATP] (specific activity approx. 500 cpm/pmol, concentration as required). The reaction is initiated by the addition of the MgATP mix. After incubation for 40 minutes at room temperature, the reaction is stopped by the addition of 5 μl of a 3% phosphoric acid solution. 10 μl of the reaction is then spotted onto a P30 filtermat and washed three times for 5 minutes in 75 mM phosphoric acid and once in methanol prior to drying and scintillation counting.

[3] = target: p38α (Homo sapiens, UniProt Q16539); experiment: SAPK2a Kinase Activity (p38α)
Sequence of p38α (Q16539 whole entry): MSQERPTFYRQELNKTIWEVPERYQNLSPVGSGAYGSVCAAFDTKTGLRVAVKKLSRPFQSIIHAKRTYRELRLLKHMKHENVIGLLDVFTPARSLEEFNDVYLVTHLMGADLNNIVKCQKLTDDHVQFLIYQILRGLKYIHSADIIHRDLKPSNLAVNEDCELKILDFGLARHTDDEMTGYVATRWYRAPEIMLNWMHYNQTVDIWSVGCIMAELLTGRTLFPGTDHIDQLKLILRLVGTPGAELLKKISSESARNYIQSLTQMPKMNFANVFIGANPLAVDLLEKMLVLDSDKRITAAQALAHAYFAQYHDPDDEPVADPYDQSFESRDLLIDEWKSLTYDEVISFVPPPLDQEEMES
Description: as §1, with “SAPK2a” for “c-RAF”, “0.33” for “0.66”, “MgAcetate” for “MgAcetate,”, “the” for “then”

[4] = target: Mnk2 (Homo sapiens, UniProt Q9HBH9); experiment: Protein kinase inhibition, Mnk2; conditions: Rate (μM) 2, read-out: % Control
Sequence of Mnk2 (Q9HBH9 whole entry): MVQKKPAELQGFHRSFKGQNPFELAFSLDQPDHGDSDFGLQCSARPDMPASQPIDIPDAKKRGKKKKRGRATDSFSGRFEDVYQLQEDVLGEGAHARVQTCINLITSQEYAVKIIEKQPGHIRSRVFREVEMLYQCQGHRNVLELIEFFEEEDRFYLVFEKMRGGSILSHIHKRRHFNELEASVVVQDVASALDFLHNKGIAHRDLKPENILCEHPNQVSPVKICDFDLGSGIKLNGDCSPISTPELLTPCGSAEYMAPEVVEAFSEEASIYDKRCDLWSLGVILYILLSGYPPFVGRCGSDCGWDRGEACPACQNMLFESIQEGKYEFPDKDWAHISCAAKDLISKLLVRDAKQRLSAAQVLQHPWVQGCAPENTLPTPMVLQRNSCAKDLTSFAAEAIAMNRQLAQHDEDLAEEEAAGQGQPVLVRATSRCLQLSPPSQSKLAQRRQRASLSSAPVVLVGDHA

[5] = target: Flt1 (Homo sapiens, UniProt P17948); experiment: Protein kinase inhibition, Flt1; conditions: Rate (μM) 2, read-out: % Control
[6] = target: MuSK (Homo sapiens, UniProt O15146); experiment: Protein kinase inhibition, MuSK; conditions: Rate (μM) 2, read-out: % Control
[7] = target: Lck (Homo sapiens, UniProt P06239); experiment: Lck Kinase Activity
Sequence of Lck (P06239 whole entry): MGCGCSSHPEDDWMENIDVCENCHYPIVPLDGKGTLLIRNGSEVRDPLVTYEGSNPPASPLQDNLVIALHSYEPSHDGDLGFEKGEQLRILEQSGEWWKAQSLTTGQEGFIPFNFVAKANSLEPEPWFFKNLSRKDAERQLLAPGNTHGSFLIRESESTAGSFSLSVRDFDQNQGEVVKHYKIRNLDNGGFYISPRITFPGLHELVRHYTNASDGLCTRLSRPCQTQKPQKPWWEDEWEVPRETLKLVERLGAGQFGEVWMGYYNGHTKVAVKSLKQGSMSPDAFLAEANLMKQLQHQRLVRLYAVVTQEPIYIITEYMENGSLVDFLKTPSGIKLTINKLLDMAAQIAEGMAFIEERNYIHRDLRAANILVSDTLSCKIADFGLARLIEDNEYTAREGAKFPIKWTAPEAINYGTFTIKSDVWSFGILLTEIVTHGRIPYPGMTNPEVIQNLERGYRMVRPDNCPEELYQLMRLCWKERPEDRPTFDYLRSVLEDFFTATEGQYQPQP
Description: as §1, with “Lck Kinase” for “c-RAF Kinase”, “[…], Lck” for “25 μl, c-RAF”, “with 50” for “with 25”, “7.5, 0.1” for “7.5, 0.02”, “EGTA, 0.1 mM Na3VO4, 250 μM KVEKIGEGTYGVVYK (Cdc2 peptide),” for “EGTA, 0.66 mg/ml myelin basic protein,”, “mM MgAcetate” for “mM MgAcetate,”

[8] = target: DDR2 (Homo sapiens, UniProt Q16832); experiment: Protein kinase inhibition, DDR2; conditions: Rate (μM) 2, read-out: % Control
Sequence of DDR2 (Q16832 22-855): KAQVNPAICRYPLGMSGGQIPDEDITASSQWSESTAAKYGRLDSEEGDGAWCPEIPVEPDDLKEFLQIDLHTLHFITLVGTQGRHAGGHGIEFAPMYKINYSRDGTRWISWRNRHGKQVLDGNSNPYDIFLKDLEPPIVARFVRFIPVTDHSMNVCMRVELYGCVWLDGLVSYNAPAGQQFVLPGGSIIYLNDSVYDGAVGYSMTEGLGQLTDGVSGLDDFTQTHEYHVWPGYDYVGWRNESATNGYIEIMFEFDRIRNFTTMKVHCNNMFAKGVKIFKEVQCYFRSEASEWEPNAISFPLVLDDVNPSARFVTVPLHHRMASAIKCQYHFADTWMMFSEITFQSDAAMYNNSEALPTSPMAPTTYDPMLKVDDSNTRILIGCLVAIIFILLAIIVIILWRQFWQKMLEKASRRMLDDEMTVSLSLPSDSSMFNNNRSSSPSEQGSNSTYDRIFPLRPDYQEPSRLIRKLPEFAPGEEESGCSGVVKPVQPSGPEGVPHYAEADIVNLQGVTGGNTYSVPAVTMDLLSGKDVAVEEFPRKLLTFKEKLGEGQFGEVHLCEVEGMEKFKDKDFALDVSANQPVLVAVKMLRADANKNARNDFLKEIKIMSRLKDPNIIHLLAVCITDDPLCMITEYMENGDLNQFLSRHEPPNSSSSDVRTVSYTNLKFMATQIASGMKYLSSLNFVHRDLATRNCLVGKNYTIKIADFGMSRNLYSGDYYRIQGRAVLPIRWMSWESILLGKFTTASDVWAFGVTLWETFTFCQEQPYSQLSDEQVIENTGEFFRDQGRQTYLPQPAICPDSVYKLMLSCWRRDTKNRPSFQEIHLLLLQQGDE

[9] = target: Hck (Homo sapiens, UniProt P08631); experiment: Protein kinase inhibition, Hck; conditions: Rate (μM) 2, read-out: % Control
Sequence of Hck (P08631 whole entry): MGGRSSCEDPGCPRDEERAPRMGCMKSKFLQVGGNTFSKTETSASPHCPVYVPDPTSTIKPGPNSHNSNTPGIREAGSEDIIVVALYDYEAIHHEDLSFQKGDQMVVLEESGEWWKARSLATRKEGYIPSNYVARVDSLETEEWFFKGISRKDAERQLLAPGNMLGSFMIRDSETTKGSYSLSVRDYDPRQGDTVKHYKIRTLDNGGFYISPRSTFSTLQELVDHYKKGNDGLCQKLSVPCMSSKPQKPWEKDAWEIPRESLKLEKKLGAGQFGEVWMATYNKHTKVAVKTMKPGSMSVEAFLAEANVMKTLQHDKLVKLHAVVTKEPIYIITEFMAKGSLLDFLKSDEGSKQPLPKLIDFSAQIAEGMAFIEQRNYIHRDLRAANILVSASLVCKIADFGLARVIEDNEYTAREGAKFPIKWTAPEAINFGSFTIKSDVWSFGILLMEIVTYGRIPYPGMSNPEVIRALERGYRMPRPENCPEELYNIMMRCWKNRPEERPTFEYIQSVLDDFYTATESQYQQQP

[10] = system: ROCKI; experiment: Protein kinase inhibition, ROCKI (rat); conditions: Rate (μM) 2
[11] = target: TAK1 (Homo sapiens, UniProt O43318); experiment: Protein kinase inhibition, TAK1; conditions: Rate (μM) 2, read-out: % Control
[12] = target: TrkA (Homo sapiens, UniProt P04629); experiment: Protein kinase inhibition, TrkA; conditions: Rate (μM) 2, read-out: % Control
[13] = target: Tie2 (Homo sapiens, UniProt Q02763); experiment: Tie2 Kinase Activity
Sequence of Tie2 (Q02763 23-1124): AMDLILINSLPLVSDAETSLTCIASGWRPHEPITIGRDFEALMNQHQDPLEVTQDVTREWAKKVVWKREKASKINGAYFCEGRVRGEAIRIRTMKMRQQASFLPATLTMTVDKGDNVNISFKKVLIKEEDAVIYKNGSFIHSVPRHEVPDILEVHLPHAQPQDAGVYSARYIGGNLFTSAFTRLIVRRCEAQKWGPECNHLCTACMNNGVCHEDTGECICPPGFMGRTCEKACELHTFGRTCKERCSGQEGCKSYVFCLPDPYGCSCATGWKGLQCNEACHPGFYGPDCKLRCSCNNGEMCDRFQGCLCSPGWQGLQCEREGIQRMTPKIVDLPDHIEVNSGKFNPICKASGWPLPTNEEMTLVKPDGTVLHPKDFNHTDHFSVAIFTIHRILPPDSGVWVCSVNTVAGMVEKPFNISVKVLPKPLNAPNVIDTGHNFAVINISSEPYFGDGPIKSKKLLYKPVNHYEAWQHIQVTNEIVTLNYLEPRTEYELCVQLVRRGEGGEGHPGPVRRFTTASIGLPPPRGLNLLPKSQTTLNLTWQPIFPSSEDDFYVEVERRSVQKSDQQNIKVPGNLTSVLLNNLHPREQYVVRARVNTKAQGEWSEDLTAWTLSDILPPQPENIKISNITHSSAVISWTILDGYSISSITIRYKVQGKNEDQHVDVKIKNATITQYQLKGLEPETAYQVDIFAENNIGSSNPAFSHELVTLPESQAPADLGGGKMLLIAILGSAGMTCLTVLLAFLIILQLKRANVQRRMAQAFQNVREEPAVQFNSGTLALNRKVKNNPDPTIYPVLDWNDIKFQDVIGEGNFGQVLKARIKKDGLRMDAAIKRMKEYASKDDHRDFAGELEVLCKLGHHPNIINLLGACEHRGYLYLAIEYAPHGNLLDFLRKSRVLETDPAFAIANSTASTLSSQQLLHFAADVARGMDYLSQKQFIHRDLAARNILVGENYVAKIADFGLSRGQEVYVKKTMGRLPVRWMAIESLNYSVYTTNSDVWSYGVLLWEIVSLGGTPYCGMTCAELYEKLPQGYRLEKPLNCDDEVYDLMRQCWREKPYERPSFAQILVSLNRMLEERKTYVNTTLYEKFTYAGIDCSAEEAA
Description: Tie2 Kinase Activity: In a final reaction volume of 25 μl, Tie2 (h) (5-10 mU) is incubated with 8 mM MOPS pH 7.0, 0.2 mM EDTA, 0.5 mM MnCl2, 0.1 mg/ml poly(Glu, Tyr) 4:1, 10 mM MgAcetate and [γ-^33P-ATP] (specific activity approx. 500 cpm/pmol, concentration as required). The reaction is initiated by the addition of the MgATP mix. After incubation for 40 minutes at room temperature, the reaction is stopped by the addition of 5 μl of a 3% phosphoric acid solution. 10 μl of the reaction is then spotted onto a Filtermat A and washed three times for 5 minutes in 75 mM phosphoric acid and once in methanol prior to drying and scintillation counting.

[14] = target: EphA8 (Homo sapiens, UniProt P29322); experiment: Protein kinase inhibition, EphA8; conditions: Rate (μM) 2, read-out: % Control
[15] = target: Lyn (Mus musculus, UniProt P25911); experiment: Protein kinase inhibition, Lyn (mouse); conditions: Rate (μM) 2, read-out: % Control
Sequence of Lyn (Mus musculus, UniProt P25911) (P25911 whole entry): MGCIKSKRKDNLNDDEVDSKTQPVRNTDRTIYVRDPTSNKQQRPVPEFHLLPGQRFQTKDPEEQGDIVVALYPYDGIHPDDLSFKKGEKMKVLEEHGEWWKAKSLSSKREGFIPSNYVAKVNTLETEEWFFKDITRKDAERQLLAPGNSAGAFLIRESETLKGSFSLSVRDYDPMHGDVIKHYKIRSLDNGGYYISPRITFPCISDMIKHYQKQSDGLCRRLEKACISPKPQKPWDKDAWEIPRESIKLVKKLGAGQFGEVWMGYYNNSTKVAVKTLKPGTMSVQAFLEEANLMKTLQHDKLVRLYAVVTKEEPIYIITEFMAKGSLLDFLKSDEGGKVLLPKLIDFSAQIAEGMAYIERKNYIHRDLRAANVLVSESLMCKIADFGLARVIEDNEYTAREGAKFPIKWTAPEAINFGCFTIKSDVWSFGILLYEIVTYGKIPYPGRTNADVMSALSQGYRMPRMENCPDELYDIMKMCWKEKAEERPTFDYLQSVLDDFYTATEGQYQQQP

[16] = target: EphA3 (Homo sapiens, UniProt P29320); experiment: Protein kinase inhibition, EphA3; conditions: Rate (μM) 2, read-out: % Control
[17] = target: ROCKI (Homo sapiens, UniProt Q13464); experiment: Protein kinase inhibition, ROCKI (human); conditions: Rate (μM) 2, read-out: % Control
[18] = target: Pyk2 (Homo sapiens, UniProt Q14289); experiment: Protein kinase inhibition, Pyk2; conditions: Rate (μM) 2, read-out: % Control
[19] = target: Lyn (Homo sapiens, UniProt P07948); experiment: Lyn Kinase Activity; conditions: compound at 2 μm
Description: Lyn Kinase Activity: In a final reaction volume of 25 μl, Lyn (h) (5-10 mU) is incubated with 50 mM Tris pH 7.5, 0.1 mM EGTA, 0.1 mM Na3VO4, 0.1% β-mercaptoethanol, 0.1 mg/ml poly(Glue, Tyr) 4:1, 10 mM MgAcetate and [γ-^33P-ATP] (specific activity approx. 500 cpm/pmol, concentration as required). The reaction is initiated by the addition of the MgATP mix. After incubation for 40 minutes at room temperature, the reaction is stopped by the addition of 5 μl of a 3% phosphoric acid solution. 10 μl of the reaction is then spotted onto a Filtermat A and washed three times for 5 minutes in 75 mM phosphoric acid and once in methanol prior to drying and scintillation counting.

[20] = target: KDR (Homo sapiens, UniProt P35968); experiment: Protein kinase inhibition, KDR; conditions: Rate (μM) 2, read-out: % Control

Sequence of c-RAF (P04049 whole entry): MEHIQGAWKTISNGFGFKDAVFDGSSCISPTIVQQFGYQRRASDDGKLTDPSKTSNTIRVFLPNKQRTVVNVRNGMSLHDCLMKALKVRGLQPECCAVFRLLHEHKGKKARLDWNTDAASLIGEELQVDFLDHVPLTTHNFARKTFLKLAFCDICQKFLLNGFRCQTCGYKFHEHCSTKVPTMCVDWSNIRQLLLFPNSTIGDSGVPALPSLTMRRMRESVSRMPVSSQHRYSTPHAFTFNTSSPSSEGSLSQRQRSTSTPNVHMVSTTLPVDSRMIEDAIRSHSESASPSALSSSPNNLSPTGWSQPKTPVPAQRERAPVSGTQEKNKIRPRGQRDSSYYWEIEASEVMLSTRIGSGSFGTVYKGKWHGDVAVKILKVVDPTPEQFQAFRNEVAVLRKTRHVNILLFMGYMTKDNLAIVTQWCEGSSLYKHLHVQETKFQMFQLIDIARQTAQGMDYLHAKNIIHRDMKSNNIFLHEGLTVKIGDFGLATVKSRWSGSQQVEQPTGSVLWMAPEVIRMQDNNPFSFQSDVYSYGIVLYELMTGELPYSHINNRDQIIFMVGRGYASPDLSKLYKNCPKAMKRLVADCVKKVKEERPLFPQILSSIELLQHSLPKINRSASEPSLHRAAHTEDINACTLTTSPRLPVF

## CC(C)(C)c1cc(C(=O)N2CCS(=O)(=O)CC2)c(NC(=O)Nc2ccc(Oc3ccncc3)cc2)s1 [Example 3, 1-[5-tert-Butyl-3-(1,1-dioxo-1λ^6-thiomorpholine-4-carbonyl)thiophen-2-yl]-3-[4-(pyridin-4-yloxy)phenyl]urea]
[1]
  remaining activity at 2 µM: 51 to 75%
[2]; 40 min, cRaf, Human, Rate (μM) 2, read-out: % Control
  remaining activity at 2 µM: 76 to 100%
[2]; c-RAF, compound at 2 μm
  % Inhibition at 2 μm: 76-100%
[3]; P38a, Human, Rate (μM) 2
  % inhibition: 76-100%
[3]; p38α, compound at 2 μm
  % Inhibition at 2 μm: 76-100%
[4]
  remaining activity at 2 µM: 76 to 100%
[5]
  remaining activity at 2 µM: 76 to 100%
[6]
  remaining activity at 2 µM: 76 to 100%
[7]; 40 min, Lck, Human, Rate (μM) 2, read-out: % Control
  remaining activity at 2 µM: 51 to 75%
[7]; LCK, compound at 2 μm
  % Inhibition at 2 μm: 51-75%
[8]
  remaining activity at 2 µM: 76 to 100%
[9]
  remaining activity at 2 µM: 76 to 100%
[10]
  % inhibition: 51-75%
[11]
  remaining activity at 2 µM: 76 to 100%
[12]
  remaining activity at 2 µM: 76 to 100%
[13]; 40 min, Tie2, Human, Rate (μM) 2, read-out: % Control
  remaining activity at 2 µM: 76 to 100%
[13]; Tie2, compound at 2 μm
  % Inhibition at 2 μm: 76-100%
[14]
  remaining activity at 2 µM: 76 to 100%
[15]
  remaining activity at 2 µM: 76 to 100%
[16]
  remaining activity at 2 µM: 76 to 100%
[17]
  remaining activity at 2 µM: 51 to 75%
[18]
  remaining activity at 2 µM: 51 to 75%
[19]
  % Inhibition at 2 μm: 76-100%
[20]
  remaining activity at 2 µM: 76 to 100%
